This assay deals with pulmonary artery of the guinea pig (spiral strips). Kind of assay: Relaxant effect on potassium-depolarized, CaCl2-contracted spiral strips of the pulmonary artery of the guinea pig (modified method of Godfraind and Kaba and of Schuman et al). Particulars: depolarized using 40 mmol/l of potassium, contraction induced by 0.5 mmol/l of CaCl2, average value of 4 to 6 vessel strips, read-out: IC50: concentration of the test substance which inhibits the contraction by 50%. How it is done: The pharmacological action of the compounds of the formula I was determined by a modified method of Godfraind and Kaba (Arch.Int. Pharmacodyn. Ther. 196, (Suppl.) 35 to 49, 1972) and of Schuman et al (Naunyn-Schmiedeberg's Arch. Pharmacol. 289, 409 to 418, 1975). In this connection, spiral strips of the pulmonary artery of the guinea pig are depolarized using 40 mmol/l of potassium after equilibration in calcium-free Tyrode solution. An addition of 0.5 mmol/l of CaCl2 then induces a contraction. The relaxant effect of the test substance is determined by cumulative addition in semilogarithmic graduated concentrations. The concentration of the test substance which inhibits the contraction by 50% (=IC50, mol/l) is determined from the concentration-effect curve (abscissa: -log mol/l of test substance, ordinate: % inhibition of the maximum contraction, average value of 4 to 6 vessel strips).

pIC50: −log10 of the molar value. Where a name gives a salt, the structure may show the parent alone. Read-outs that look alike come from different tables or passages of the source.

As to `CC1CCCC(C)N1[n+]1[n-]oc(=N)c1CCc1ccccc1` (stereo not shown) [Example 8, 3-(2,6-Dimethylpiperidino)-4-(2-phenylethyl)sydnone imine hydrochloride], the pIC50 (Cavia porcellus) is 5.70.

Consider `CC1CCCC(C)N1[n+]1[n-]oc(=N)c1Cc1ccccc1` (stereo not shown) [Example 6, 4-Benzyl-3-(2,6-dimethylpiperidino)sydnone imine hydrochloride], for which the pIC50 (Cavia porcellus) was 5.64. In the case of `CCOC(=O)[N-]c1cn(N2CCOCC2)n[o+]1` [Molsidomine, N-ethoxycarbonyl-3-morpholino-sydnone imine, reference compound], the pIC50 was less than 3.52. In the case of `CCCCCCc1c(=N)o[n-][n+]1N1C(C)CCCC1C` (stereo not shown) [Example 3, 3-(2,6-Dimethylpiperidino)-4-hexylsydnone imine hydrochloride], the pIC50 (Cavia porcellus) was 5.62.

The record behind these values is US5179206A, “Substituted 3-aminosydnone imines” (Cassella Aktiengellschaft, priority 1989, dated 1993).
